Assay results: patent US10273240B2, “Cortistatin analogues, syntheses, and uses thereof” (President and Fellows of Harvard College, priority 2015, dated 2019)
Like-named read-outs stand apart in the source and are kept apart here.

Assays:
[1] = test system: MV4;11; test: Cell growth assay, MV4;11; type: cell-based; details: Homo sapiens
Protocol: All media was supplemented with 100 U/mL penicillin and 100 μg/mL streptomycin. Human cancer cell lines were grown in the following media: MV4; 11, K562, MOLM-14 in RPMI-1640, 10% FBS; SKNO-1 in RPMI-1640, 10% FBS, and 10 ng/mL GM-CSF; MV4;11 and K562 were from ATCC. SKNO-1 was from DSMZ.
Cell Culture. All media was supplemented with 100 U/mL penicillin and 100 μg/mL streptomycin. Human cancer cell lines were grown in the following media: MV4; 11, RS4; 11, K562, HEL, MOLM-14, MEG-01 in RPMI-1640, 10% FBS; SET-2 in RPMI-1640, 20% FBS; UKE-1 in RPMI-1640, 10% FBS, 10% horse serum and 1 μM hydrocortisone; SKNO-1 and TF-1 in RPMI-1640, 10% FBS, and 10 or 2 ng/mL GM-CSF, respectively; HaCaT in DMEM, 10% FBS; and HCT116 in McCoy's 5 A, 10% FBS (proliferation assay) or DMEM, 10% FBS (gene expression study). HepG2, MV4;11, RS4;11, MEG-01, TF-1, HCT116 and K562 were from ATCC. SKNO-1 was from DSMZ. HEL, UKE-1, and SET-2 were provided by Ross L. Levine and HaCaT, MV4;11-mCLP, and MOLM-14 by Van Wilson, Andrew L. Kung, and Scott A. Armstrong, respectively. MOLM-14 cells were authenticated by STR profiling and flow cytometry and all cell lines were routinely tested and found to be negative for mycoplasma.

[2] = target: T1, CDK13 in MOLM-14 cell lysate (Homo sapiens, UniProt Q14004); test: Native kinase capture immunoblot, CDK13; type: binding
T1 construct: endogenous in cells; host or cells: MOLM-14 cell lysate
T1 sequence (Q14004 whole entry): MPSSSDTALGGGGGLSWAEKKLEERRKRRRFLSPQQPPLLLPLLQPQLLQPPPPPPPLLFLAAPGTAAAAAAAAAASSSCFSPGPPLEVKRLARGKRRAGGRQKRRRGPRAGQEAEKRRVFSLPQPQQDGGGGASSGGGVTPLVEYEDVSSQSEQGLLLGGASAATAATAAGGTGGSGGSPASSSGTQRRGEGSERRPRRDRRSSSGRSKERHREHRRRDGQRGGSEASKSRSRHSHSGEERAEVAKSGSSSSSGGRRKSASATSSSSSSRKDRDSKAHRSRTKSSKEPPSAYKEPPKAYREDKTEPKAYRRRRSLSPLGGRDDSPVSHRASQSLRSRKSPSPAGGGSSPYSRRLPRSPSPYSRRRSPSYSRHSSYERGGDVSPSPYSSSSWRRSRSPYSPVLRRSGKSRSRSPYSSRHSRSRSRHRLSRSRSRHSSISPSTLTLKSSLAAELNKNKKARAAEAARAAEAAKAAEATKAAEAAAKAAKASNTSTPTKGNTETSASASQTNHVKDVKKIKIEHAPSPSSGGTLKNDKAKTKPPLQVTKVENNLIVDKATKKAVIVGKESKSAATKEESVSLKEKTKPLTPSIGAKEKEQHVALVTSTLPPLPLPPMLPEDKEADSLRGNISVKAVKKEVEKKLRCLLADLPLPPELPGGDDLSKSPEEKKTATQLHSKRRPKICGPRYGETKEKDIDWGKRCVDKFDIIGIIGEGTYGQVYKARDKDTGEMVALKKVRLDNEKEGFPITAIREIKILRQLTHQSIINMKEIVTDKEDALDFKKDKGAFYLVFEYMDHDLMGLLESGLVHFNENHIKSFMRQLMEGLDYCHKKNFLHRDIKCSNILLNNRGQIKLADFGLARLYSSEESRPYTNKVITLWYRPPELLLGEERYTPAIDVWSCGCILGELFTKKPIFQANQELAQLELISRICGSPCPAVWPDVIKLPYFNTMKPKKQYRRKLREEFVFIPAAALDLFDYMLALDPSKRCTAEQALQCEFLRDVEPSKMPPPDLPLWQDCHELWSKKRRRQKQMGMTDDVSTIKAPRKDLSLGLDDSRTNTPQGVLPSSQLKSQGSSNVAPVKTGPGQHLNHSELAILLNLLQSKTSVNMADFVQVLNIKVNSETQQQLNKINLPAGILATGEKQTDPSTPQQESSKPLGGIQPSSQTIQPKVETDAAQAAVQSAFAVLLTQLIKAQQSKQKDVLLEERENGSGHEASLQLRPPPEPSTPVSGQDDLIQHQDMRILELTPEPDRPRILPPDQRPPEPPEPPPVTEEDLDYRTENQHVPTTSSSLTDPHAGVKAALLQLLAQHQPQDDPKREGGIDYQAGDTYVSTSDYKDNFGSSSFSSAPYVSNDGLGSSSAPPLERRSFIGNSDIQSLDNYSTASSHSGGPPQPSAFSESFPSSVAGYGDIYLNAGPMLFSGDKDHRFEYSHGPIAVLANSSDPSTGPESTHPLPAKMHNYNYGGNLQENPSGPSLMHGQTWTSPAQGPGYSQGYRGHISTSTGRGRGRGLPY
T1 sequence (O75909 whole entry partner): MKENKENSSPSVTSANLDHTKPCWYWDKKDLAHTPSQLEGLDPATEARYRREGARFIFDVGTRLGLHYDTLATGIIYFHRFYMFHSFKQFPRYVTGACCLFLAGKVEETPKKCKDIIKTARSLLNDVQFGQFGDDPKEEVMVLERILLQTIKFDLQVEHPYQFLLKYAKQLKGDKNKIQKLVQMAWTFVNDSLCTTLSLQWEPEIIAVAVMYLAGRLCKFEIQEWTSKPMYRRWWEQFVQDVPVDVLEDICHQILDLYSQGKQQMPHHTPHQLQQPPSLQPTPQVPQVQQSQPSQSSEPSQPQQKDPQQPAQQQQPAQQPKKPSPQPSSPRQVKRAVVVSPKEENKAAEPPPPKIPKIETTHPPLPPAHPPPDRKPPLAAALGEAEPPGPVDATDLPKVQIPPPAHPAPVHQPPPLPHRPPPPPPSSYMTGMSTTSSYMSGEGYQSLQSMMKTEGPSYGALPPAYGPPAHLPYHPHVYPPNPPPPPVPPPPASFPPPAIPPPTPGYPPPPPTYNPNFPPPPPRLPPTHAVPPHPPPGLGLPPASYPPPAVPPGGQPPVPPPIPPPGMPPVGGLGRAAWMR
Protocol: (§1) Native Kinase Capture Immunoblot and Native Kinome-Wide Profiling. […] Experiment was performed twice with one immunoblot shown.

[3] = test system: luciferase-expressing MV4;11 cells; test: MV4;11 xenotransplant model of disseminated human AML; type: in vivo; details: IP once daily for 15 days, NSG mice
Protocol: In Vivo Studies. Studies were performed at Charles River Laboratories (CRL) and Dana Farber Cancer Institute (DFCI) where indicated and approved by Harvard University and each institution's respective animal care and use committee. For pharmacokinetic studies, serial blood samples from 7 week old male CD-1 mice (n=3 per timepoint) were collected (no blinding) into K2EDTA tubes, centrifuged, transferred into 96-well plates (matrix tubes), stored at −20° C., and analysed by HPLC/MS/MS (in-life performed at CRL). Study size was determined by the need for three blood samples per timepoint with three blood samples collected per mouse. The MV4; 11 xenograft model were performed as previously described (Etchin, J. et al. Antileukemic activity of nuclear export inhibitors that spare normal hematopoietic cells. Leukemia 27, 66-74 (2013); in-life performed at DFCI) Two million MV4;11-mCLP cells were injected into the tail vein of 7-week-old female NOD-SCID-IL2Rcγ^null (NSG) mice (The Jackson Laboratory) and tumor burden was assessed by bioluminescence imaging (BLI) using an IVIS Spectrum system (Caliper Life Sciences). […] After 30 days, blood counts were obtained (Hemavet 950 F, Drew Scientific) and spleen, femur, and peripheral blood cells were collected and analysed by flow cytometry (LSR Fortessa, BD Biosciences) from 3 mice/group. […]

[4] = test system: subcutaneously implanted SET-2 cells; test: SET-2 subcutaneous xenotransplant model; type: in vivo; details: SCID beige mice, IP dosing daily
[5] = target: T2, CDK9 in MOLM-14 cell lysate (Homo sapiens, UniProt P50750); test: Native kinase capture immunoblot, CDK9; type: binding
T2 construct: endogenous in cells; host or cells: MOLM-14 cell lysate
T2 sequence (P50750 whole entry): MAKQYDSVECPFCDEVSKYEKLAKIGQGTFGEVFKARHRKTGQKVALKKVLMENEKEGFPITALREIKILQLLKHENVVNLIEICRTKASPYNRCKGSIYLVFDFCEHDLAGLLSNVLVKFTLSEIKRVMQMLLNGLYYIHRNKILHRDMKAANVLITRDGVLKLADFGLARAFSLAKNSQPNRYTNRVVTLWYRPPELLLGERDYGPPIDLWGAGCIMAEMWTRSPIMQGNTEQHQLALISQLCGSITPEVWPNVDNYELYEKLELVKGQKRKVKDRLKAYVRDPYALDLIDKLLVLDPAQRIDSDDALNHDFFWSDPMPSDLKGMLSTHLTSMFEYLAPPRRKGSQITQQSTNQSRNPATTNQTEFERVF
T2 sequence (O60563 whole entry partner): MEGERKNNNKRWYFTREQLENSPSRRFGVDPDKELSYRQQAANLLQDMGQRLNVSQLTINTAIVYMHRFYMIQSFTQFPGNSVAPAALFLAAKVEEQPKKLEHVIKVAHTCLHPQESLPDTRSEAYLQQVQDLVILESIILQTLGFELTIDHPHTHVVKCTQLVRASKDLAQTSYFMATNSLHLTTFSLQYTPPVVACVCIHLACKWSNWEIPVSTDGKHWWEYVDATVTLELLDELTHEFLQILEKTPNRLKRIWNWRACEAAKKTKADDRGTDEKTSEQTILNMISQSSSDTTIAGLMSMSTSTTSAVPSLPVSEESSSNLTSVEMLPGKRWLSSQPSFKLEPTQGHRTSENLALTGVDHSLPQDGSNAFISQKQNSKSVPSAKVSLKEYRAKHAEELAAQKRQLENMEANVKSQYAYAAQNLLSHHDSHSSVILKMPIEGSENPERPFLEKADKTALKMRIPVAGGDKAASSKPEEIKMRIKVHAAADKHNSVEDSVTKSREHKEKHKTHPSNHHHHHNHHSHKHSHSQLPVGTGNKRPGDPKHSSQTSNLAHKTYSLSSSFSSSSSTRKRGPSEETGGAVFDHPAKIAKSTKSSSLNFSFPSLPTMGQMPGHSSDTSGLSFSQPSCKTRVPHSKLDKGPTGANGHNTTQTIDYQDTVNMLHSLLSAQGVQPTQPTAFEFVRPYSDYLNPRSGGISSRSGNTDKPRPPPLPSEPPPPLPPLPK
Protocol: as §1

Compound: CN(C)[C@H]1C[C@@]23CC[C@@]4(O2)C(=CC[C@@]2(C)[C@@H](c5ccc6ccncc6c5)CC[C@H]24)C=C3[C@@H](O)[C@@H]1O [CA, cortistatin A]
- GI50 ([1]; MV4-11, 240 h, CA, after 10 days, read-out: Mean GI50 (nM), MV4;11): 6 nM
- GI50 ([1]; MV4-11, 240 h, read-out: MV4;11 GI50 day 10): 3.5 nM
- GI50 ([1]; MV4-11, Table 5, read-out: GI50 (nM), MV4;11): 6 nM
- binding of CDK13 (no binding at up to) [2]: > 2500 nM
- disease progression (bioluminescence, spleen weight, leukemia cell burden, survival) [3]: dose-dependent reduction in disease progression
- median extension in survival [3]: 29.5 days
- body weight [4]: no loss in body weight
- tumor volume reduction [4]: 71%
- binding of CDK9 (no binding at up to) [5]: > 2500 nM
